Assay type in all cases: physicochemical
Series [1] is described as follows: Physical stability in the drug product by FT-Raman and Solid State NMR spectroscopy. Particulars: for amount of physical impurity: in drug product. The source says:
The physical stabilities of lorlatinib Form 7 and acetic acid solvate in the drug product were investigated under a variety of conditions using FT-Raman and Solid State NMR spectroscopy.

The nature of series [2]: Thermodynamic stability: slurry experiments, solid form evaluated by PXRD. Particulars: for Slurry Output (solid form): 2 weeks. On the procedure: The thermodynamic stability of anhydrous lorlatinib free base (Form 7) was evaluated employing slurry experiments under a range of water activity and temperature conditions. […] After 2 weeks, the solids in equilibrium were isolated and the solid form was evaluated by PXRD.

Series [3] in a line: Solid-state physical stability of Form 7 API at elevated humidity / accelerated conditions. The source says: The physical stability of anhydrous lorlatinib free base (Form 7) API was investigated at elevated relative humidities (% RH) for extended time period and at accelerated stability conditions for shorter period.

“Also recorded” adds a separate entry of the source.

Turning to `C[C@H]1Oc2cc(cnc2N)-c2c(nn(C)c2C#N)CN(C)C(=O)c2ccc(F)cc21` [Form 7, (10R)-7-amino-12-fluoro-2,10,16-trimethyl-15-oxo-10,15,16,17-tetrahydro-2H-8,4-(metheno)pyrazolo[4,3-h][2,5,11]benzoxadiazacyclotetradecine-3-carbonitrile], the “amount of physical impurity” value in series [1] (25° C./60% RH, 12 months) is “No change detected”; in series [1] (30° C./65% RH, 12 months), “No change detected”; in series [1] (50° C./75% RH, 2 weeks), “No change detected”; in series [1] (70° C./10% RH, 3 weeks), “No change detected”; in series [1] (70° C./40% RH, 2 weeks), “No change detected”; in series [1] (70° C./75% RH, 1 week) it was “No change detected”. Besides, in series [1] (representative drug product formulation), the “physical stability relative to the acetic acid solvate of lorlatinib free base” value is given as “superior physical stability”. Also, the “Slurry Output (solid form)” value in series [2] (IPA, water activity 0.25, 5° C.) is “Form 16”; in series [2] (IPA, water activity 0.25, 40° C.), “Form 7”; in series [2] (IPA, water activity 0.25, RT), “Form 7”; in series [2] (IPA, water activity 0.50, 5° C.), “Form 13”; in series [2] (IPA, water activity 0.50, 40° C.) it was “Form 5”; in series [2] (IPA, water activity 0.50, RT), “Form 13”. The “Slurry Output (solid form)” value in series [2] (IPA, water activity 0.70, 5° C.) is listed as “Form 13”; in series [2] (IPA, water activity 0.70, 40° C.), “Form 5”; in series [2] (IPA, water activity 0.70, RT) it was “Form 13”; in series [2] (IPA, water activity 0.90, 5° C.) it was “Form 13”; in series [2] (IPA, water activity 0.90, 40° C.), “Form 13”; in series [2] (IPA, water activity 0.90, RT), “Form 13”. Moreover, the “Slurry Output (solid form)” value in series [2] (MiBK, water activity 0, 5° C.) is “Form 7”; in series [2] (MiBK, water activity 0, 40° C.), “Form 7”; in series [2] (MiBK, water activity 0, RT), “Form 7”; in series [2] (TBME, water activity 0, 5° C.), “Form 7”; in series [2] (TBME, water activity 0, 40° C.) it was “Form 7”; in series [2] (TBME, water activity 0, RT) it was “Form 7”. Moreover, the “Slurry Output (solid form)” value was “Form 7” in series [2] (Toluene, water activity 0, 5° C.); “Form 7” in series [2] (Toluene, water activity 0, 40° C.); “Form 7” in series [2] (Toluene, water activity 0, RT); “Form 7 + Form 18” in series [2] (Water, water activity 1.00, 5° C.); “Form 7” in series [2] (Water, water activity 1.00, 40° C.); “Form 18” in series [2] (Water, water activity 1.00, RT). For the same compound, the “Slurry Output (solid form)” value in series [2] (iProAc, water activity 0, 5° C.) is given as “Form 7”; in series [2] (iProAc, water activity 0, 40° C.), “Form 7”; in series [2] (iProAc, water activity 0, RT), “Form 7”; in series [2] (nBuOH, water activity 0, 5° C.) it was “Form 7”; in series [2] (nBuOH, water activity 0, 40° C.), “Form 7”; in series [2] (nBuOH, water activity 0, RT), “Form 20”. Moreover, the “Thermodynamic stability, overall outcome of slurry experiments” value in series [2] (diverse solvent systems, 5° C., room temperature and 40° C., water activities 0.25 to 1.00, 2 weeks) was “does not convert to a different anhydrous solid state”. Besides, the “Solid Form after storage (physical stability)” value is “did not undergo any physical change; also recorded: Form 7” in series [3] (70° C./75% RH, 1 week); “did not undergo any physical change; also recorded: Form 7” in series [3] (75% RH, ambient temperature, 12 months); “Form 7” in series [3] (80° C./40% RH, 1 week); “did not undergo any physical change; also recorded: Form 7” in series [3] (90% RH, ambient temperature, 12 months). For the same compound, the “Physical change after storage (physical stability)” value in series [3] (80° C./75% RH, 1 week (as printed in text)) was “did not undergo any physical change”.
For the compound `CC(=O)O.C[C@H]1Oc2cc(cnc2N)-c2c(nn(C)c2C#N)CN(C)C(=O)c2ccc(F)cc21` [lorlatinib acetic acid solvate, reference compound], the “amount of physical impurity” value in series [1] (70° C./10% RH, 3 weeks) was “impurity >50%”; in series [1] (70° C./40% RH, 2 weeks), “impurity >50%”; in series [1] (70° C./75% RH, 1 week), “impurity >50%”.

For the origin of these results see patent US10420749B2, “Crystalline form of lorlatinib free base” (Pfizer Inc., priority 2015, dated 2019).
